The supplement of paper PMC4862054

How the values were obtained:
Test in all cases: normalised response (% of control), CellTiter-Glo; higher = more viable cells (100 = DMSO, 0 = benzethonium chloride kill control)
Settings in all cases: incubation time: 72 h
[1] = tested on: BT-474
Protocol: (§1)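 DSRT, 72 h incubation, CellTox Green / CellTiter-Glo readout. Signal is normalised to DMSO and benzethonium chloride controls. Value is the normalised response at the highest dose.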

[2] = tested on: BT-549
Protocol: as §1

[3] = tested on: CAL-120
Protocol: as §1

[4] = tested on: CAL-148
Protocol: as §1

[5] = tested on: CAL-51
Protocol: as §1

[6] = tested on: CAL-85-1
Protocol: as §1

[7] = tested on: DU-4475
Protocol: as §1

[8] = tested on: HCC1143
Protocol: as §1

[9] = tested on: HCC1599
Protocol: as §1

[10] = tested on: HCC1937
Protocol: as §1

[11] = tested on: HDQ-P1
Protocol: as §1

[12] = tested on: Hs578T
Protocol: as §1

[13] = tested on: MCF-10A
Protocol: as §1

[14] = tested on: MDA-MB-231
Protocol: as §1

[15] = tested on: MDA-MB-436
Protocol: as §1

[16] = tested on: MDA-MB-453
Protocol: as §1

[17] = tested on: MDA-MB-468
Protocol: as §1

[18] = tested on: MFM-223
Protocol: as §1

[19] = tested on: SK-BR-3
Protocol: as §1

[20] = tested on: BT-549; remark: listed apart in the source
Procedure, shortened: (§2)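 A 20 µl suspension of breast cancer cells was seeded into each well of 384-well plates containing compound at 5 concentrations in 10-fold steps over a compound-specific 10,000-fold range. After 72 h incubation, CellTox Green fluorescence (485/520 nm) was read first, and CellTiter-Glo luminescence was read after 10 min at room temperature. Each plate was normalised against 0.1 % DMSO (100) and a positive kill control (0), and each value is the normalised signal at one concentration.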

[21] = tested on: CAL-51; remark: listed apart in the source
Procedure, shortened: as §2

[22] = tested on: DU-4475; remark: listed apart in the source
Procedure, shortened: as §2

[23] = tested on: HDQ-P1; remark: listed apart in the source
Procedure, shortened: as §2

[24] = tested on: MDA-MB-231; remark: listed apart in the source
Procedure, shortened: as §2

[25] = tested on: MDA-MB-436; remark: listed apart in the source
Procedure, shortened: as §2

Compound	normalised response [1] [%]	normalised response [2] [%]	normalised response [3] [%]	normalised response [4] [%]	normalised response [5] [%]	normalised response [6] [%]	normalised response [7] [%]	normalised response [8] [%]	normalised response [9] [%]	normalised response [10] [%]	normalised response [11] [%]	normalised response [12] [%]	normalised response [13] [%]	normalised response [14] [%]	normalised response [15] [%]	normalised response [16] [%]	normalised response [17] [%]	normalised response [18] [%]	normalised response [19] [%]	normalised response [20] [%]	normalised response [21] [%]	normalised response [22] [%]	normalised response [23] [%]	normalised response [24] [%]	normalised response [25] [%]
Cn1c(=O)c(F)c(Nc2ccc(I)cc2F)c2c(=O)n(C[C@@H](O)CO)cnc21 [TAK-733] (1000 nM)	57.4	84	64.2	98.9	78.2	43.1	0.81	76.7	82	68.3	55.3	70.2	35.5	56.4	76.8	97.7	73.6	70.2	105						
CN1CCN(c2ccc3nc(-c4c(N)c5c(F)cccc5[nH]c4=O)[nH]c3c2)CC1 [Dovitinib] (10000 nM)	91.5	95.6	89.4	88.1	127	95.9	99.9	90.1	102	88	89.8	95.8	100	94	87.6	96.4	78.1	77.6	91.5						
COc1cccc2c1C(=O)c1c(O)c3c(c(O)c1C2=O)C[C@@](O)(C(C)=O)C[C@@H]3O[C@H]1C[C@H](N)[C@H](O)[C@H](C)O1 [Daunorubicin] (100 nM)																				68.9	46.2	86.9	91.8	88.7	77.9
CC(C)(C)c1cc(NC(=O)Nc2ccc(-c3cn4c(n3)sc3cc(OCCN5CCOCC5)ccc34)cc2)no1 [Quizartinib] (1000 nM)	101	91.7	112	108	125	106	105	108	88.6	104	103	92.6	109	113	109	97	114	105	103						
O=C(c1ccc(OCCN2CCCCC2)cc1)c1c(-c2ccc(O)cc2)sc2cc(O)ccc12 [Raloxifene] (1000 nM)																				102	121	103	100	107	103
C#Cc1cccc(Nc2ncnc3cc(OC)c(OCCCCCCC(=O)NO)cc23)c1 [CUDC-101] (10000 nM)	8.24	18	38.6	0.32	12.8	1.02	5.82	15.1	7.05	21	33.4	6.2	8.27	2.74	33.5	4.64	9.04	26.4	0.76						
CC(=O)O[C@H]1C(=O)[C@@]2(C)[C@H]([C@H](OC(=O)c3ccccc3)[C@]3(O)C[C@H](OC(=O)[C@H](O)[C@@H](NC(=O)c4ccccc4)c4ccccc4)C(C)=C1C3(C)C)[C@]1(OC(C)=O)CO[C@@H]1C[C@@H]2O [Paclitaxel] (1000 nM)	29.5	12.1	48.9	44.1	26.2	20.4	34.8	31.2	33.6	64.7	61.2	9.73	32.3	25.3	27	51.5	23.9	38.8	11.2						
Cn1cnc2c(F)c(Nc3ccc(Br)cc3F)c(C(=O)NOCCO)cc21 [MEK-162] (100 nM)																				100	104	42.6	71.4	92	100
CS(=O)(=O)OCCCCOS(C)(=O)=O [Busulfan] (10000 nM)																				97.3	109	107	98.3	102	101
CC(C)C[C@H](NC(=O)[C@H](Cc1ccccc1)NC(=O)c1cnccn1)B(O)O [Bortezomib] (1000 nM)	1.31	2.23	7.39	0.43	2.86	0.44	6.46	5.75	21.3	2.46	0.65	0.04	3.63	0.08	1.47	11.5	0.97	2.91	1.8						
COC1=CC(c2cc3ccccc3[nH]2)=N/C1=C\c1[nH]c(C)cc1C [Obatoclax] (1000 nM)																				77.3	99.5	89.7	97	64	89.7
Cn1c(=O)c(F)c(Nc2ccc(I)cc2F)c2c(=O)n(C[C@@H](O)CO)cnc21 [TAK-733] (100 nM)																				91.6	64.6	1.33	66.3	78	97.1
COc1ncc(-c2ccc3nccc(-c4ccnnc4)c3c2)cc1NS(=O)(=O)c1ccc(F)cc1F (100 nM)																				27.1	29.5	78.1	25.5	55	46.7
C[C@@H]1C=C2C(=O)O[C@@H]3CC[C@H](C1)[C@]23O [Galiellalactone] (5000 nM)																				97.6	71.9	102	100	114	106
O=c1[nH]c(=O)n([C@H]2C[C@H](O)[C@@H](CO)O2)cc1F [Floxuridine] (1000 nM)																				85.4	37.8	92.8	83.9	76.8	67.9
C#Cc1cccc(Nc2ncnc3cc(OC)c(OCCCCCCC(=O)NO)cc23)c1 [CUDC-101] (1000 nM)																				66.9	68.4	64.1	70	39.1	73.7
CCOc1cc2ncc(C#N)c(Nc3ccc(OCc4ccccn4)c(Cl)c3)c2cc1NC(=O)/C=C/CN(C)C [Neratinib] (100 nM)																				97.5	112	101	69.8	102	95
CN1CCN(c2ccc3nc(-c4c(N)c5c(F)cccc5[nH]c4=O)[nH]c3c2)CC1 [Dovitinib] (1000 nM)																				95.5	115	101	102	101	101
CC(=O)O[C@H]1C(=O)[C@@]2(C)[C@H]([C@H](OC(=O)c3ccccc3)[C@]3(O)C[C@H](OC(=O)[C@H](O)[C@@H](NC(=O)c4ccccc4)c4ccccc4)C(C)=C1C3(C)C)[C@]1(OC(C)=O)CO[C@@H]1C[C@@H]2O [Paclitaxel] (100 nM)																				15	29.3	51.5	60.4	33.2	28.1
O=c1[nH]cc(F)c(=O)[nH]1 [Fluorouracil] (1000 nM)																				104	110	90.2	92.2	97.7	75.6
CCS(=O)(=O)c1cccc(-c2cc(C(=O)NC3CCN(C)CC3)c(C)c3[nH]c4ncc(C)cc4c23)c1 [TAK-901] (100 nM)																				82	82.4	98.5	86.2	77.6	97.2
CC(C)C[C@H](NC(=O)[C@H](Cc1ccccc1)NC(=O)c1cnccn1)B(O)O [Bortezomib] (100 nM)																				1.75	1.1	13	3.18	0.34	2.39
COc1c(C)cnc(Cn2cnc3c(Cl)nc(N)nc32)c1C [BIIB021] (1000 nM)																				37.3	19	0.4	29.5	25.5	42.5
COc1ccc(C2=N[C@@H](c3ccc(Cl)cc3)[C@@H](c3ccc(Cl)cc3)N2C(=O)N2CCNC(=O)C2)c(OC(C)C)c1 [Nutlin-3] (1000 nM)																				100	83.9	96.5	105	106	110
CC(C)(C)c1cc(NC(=O)Nc2ccc(-c3cn4c(n3)sc3cc(OCCN5CCOCC5)ccc34)cc2)no1 [Quizartinib] (100 nM)																				106	107	104	100	108	111
COC1=C2C[C@@H](C)C[C@H](OC)[C@H](O)[C@@H](C)/C=C(\C)[C@H](OC(N)=O)[C@@H](OC)/C=C\C=C(/C)C(=O)NC(=CC1=O)C2=O [Geldanamycin] (1000 nM)																				81.2	96.2	91.4	97.2	97.9	64.4
C[C@@]1(C(=O)Nc2ccc(F)nc2)CCCN1c1nc(Nc2cc(C3CC3)n[nH]2)c2cccn2n1 (1000 nM)																				61.4	62.5	80.4	46.7	62.4	66.9
